# Assay results published in ChEMBL document CHEMBL1671792, “Conformationally constrained farnesoid X receptor (FXR) agonists: heteroaryl replacements of the naphthalene” (Bioorg Med Chem Lett, 2011).
# Assays:
# Mus musculus [1] = assay: Antidiabetic activity in diet-induced obese mouse assessed as serum glucose level at 10 mg/kg, po for 4 weeks (reference value: 316.5 +/-13.2 mg/dL); assay type: functional
# Homo sapiens [2] = species: Homo sapiens; assay: Selectivity ratio of EC50 for human FXR to EC50 for human PPARalpha
# [3] = Volume of distribution at steady state in iv dosed Beagle dog; assay type: ADME, organism-based, Canis lupus familiaris; settings: in vivo, read-out: Vdss
# Mus musculus [4] = assay: Antidiabetic activity in diet-induced obese mouse assessed as glycerol level at 30 mg/kg, po for 4 weeks (reference value: 11.0 +/-1.3 mg/dL); assay type: functional
# Mus musculus [5] = assay: Antidiabetic activity in diet-induced obese mouse assessed as change in body weight at 100 mg/kg, po for 4 weeks measured after 1 week (reference value: 29.1+/-0.8 g); assay type: functional
# [6] = Clearance in iv dosed Beagle dog; assay type: ADME, organism-based, Canis lupus familiaris; settings: in vivo
# [7] = Half life in iv dosed cynomolgus monkey; assay type: ADME, organism-based, Macaca fascicularis; settings: in vivo
# Cytochrome P450 1A2 = molecular target: T1, Cytochrome P450 1A2 (Homo sapiens, UniProt P05177); assay: Inhibition of CYP1A2 in human liver microsome; assay type: microsomes
# T1 sequence (P05177 whole entry): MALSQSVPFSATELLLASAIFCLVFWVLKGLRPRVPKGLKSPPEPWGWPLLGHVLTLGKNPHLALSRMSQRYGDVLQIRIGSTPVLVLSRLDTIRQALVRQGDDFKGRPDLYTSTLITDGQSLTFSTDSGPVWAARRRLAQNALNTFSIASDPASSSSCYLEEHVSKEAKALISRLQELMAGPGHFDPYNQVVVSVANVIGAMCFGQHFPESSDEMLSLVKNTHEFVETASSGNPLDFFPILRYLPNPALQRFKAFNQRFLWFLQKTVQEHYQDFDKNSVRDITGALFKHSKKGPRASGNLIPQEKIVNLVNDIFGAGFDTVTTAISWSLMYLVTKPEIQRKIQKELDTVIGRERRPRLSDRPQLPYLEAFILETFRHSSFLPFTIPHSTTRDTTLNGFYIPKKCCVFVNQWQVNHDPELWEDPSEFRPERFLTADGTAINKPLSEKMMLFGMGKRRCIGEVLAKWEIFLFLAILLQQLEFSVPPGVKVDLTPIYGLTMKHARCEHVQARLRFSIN
# Bile acid receptor = molecular target: T2, Bile acid receptor (Homo sapiens, UniProt Q96RI1); assay: Agonist activity at human FXR LBD assessed as SRC1 peptide recruitment by FRET assay; assay type: functional
# T2 sequence (Q96RI1 whole entry): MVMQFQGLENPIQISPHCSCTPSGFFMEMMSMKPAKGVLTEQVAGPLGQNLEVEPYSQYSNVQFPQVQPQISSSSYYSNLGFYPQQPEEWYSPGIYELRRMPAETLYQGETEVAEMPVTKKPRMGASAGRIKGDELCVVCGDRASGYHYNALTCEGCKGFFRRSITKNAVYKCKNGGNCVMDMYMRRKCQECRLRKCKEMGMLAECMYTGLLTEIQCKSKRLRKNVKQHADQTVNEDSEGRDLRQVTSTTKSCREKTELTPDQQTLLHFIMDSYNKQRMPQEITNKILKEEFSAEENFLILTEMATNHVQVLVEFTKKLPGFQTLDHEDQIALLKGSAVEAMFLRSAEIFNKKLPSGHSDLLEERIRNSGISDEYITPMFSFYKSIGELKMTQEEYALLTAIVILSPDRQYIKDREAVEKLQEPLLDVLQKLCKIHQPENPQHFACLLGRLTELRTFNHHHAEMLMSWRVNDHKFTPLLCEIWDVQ
# Mus musculus [8] = assay: Antidiabetic activity in diet-induced obese mouse assessed as triglyceride level at 10 mg/kg, po for 4 weeks (reference value: 54.4 +/-1.5 mg/dL); assay type: functional
# Homo sapiens [9] = species: Homo sapiens; assay: Selectivity ratio of EC50 for human FXR to EC50 for human LXRbeta
# Mus musculus [10] = assay: Antidiabetic activity in diet-induced obese mouse assessed as serum glucose level at 100 mg/kg, po for 4 weeks (reference value: 316.5 +/-13.2 mg/dL); assay type: functional
# Mus musculus [11] = assay: Antidiabetic activity in diet-induced obese mouse assessed as serum insulin level at 30 mg/kg, po for 4 weeks (reference value: […]); assay type: functional
# Mus musculus [12] = assay: Antidiabetic activity in diet-induced obese mouse assessed as total cholesterol level at 30 mg/kg, po for 4 weeks (reference value: 140.0 +/-2.8 mg/dL); assay type: functional
# Homo sapiens [13] = species: Homo sapiens; assay: Selectivity ratio of EC50 for human FXR to EC50 for human PPARgamma
# Mus musculus [14] = assay: Antidiabetic activity in diet-induced obese mouse assessed as change in body weight at 100 mg/kg, po for 4 weeks measured after 2 weeks (reference value: 29.1+/-0.8 g); assay type: functional
# Mus musculus [15] = assay: Antidiabetic activity in diet-induced obese mouse assessed as NEFA level at 30 mg/kg, po for 4 weeks (reference value: 0.46 +/-0.02 mEq/dL); assay type: functional
# Homo sapiens [16] = species: Homo sapiens; assay: Selectivity ratio of EC50 for human FXR to EC50 for human PPARdelta
# Mus musculus [17] = assay: Antidiabetic activity in diet-induced obese mouse assessed as serum insulin level at 10 mg/kg, po for 4 weeks (reference value: […]); assay type: functional
# Mus musculus [18] = assay: Antidiabetic activity in diet-induced obese mouse assessed as beta-hydroxybutyrate level at 30 mg/kg, po for 4 weeks (reference value: 1.7 +/-0.1 mg/dL); assay type: functional
# [19] = Volume of distribution at steady state in iv dosed mouse; assay type: ADME, organism-based; settings: in vivo, read-out: Vdss
# Mus musculus [20] = assay: Antidiabetic activity in diet-induced obese mouse assessed as glycerol level at 100 mg/kg, po for 4 weeks (reference value: 11.0 +/-1.3 mg/dL); assay type: functional
# Homo sapiens [21] = species: Homo sapiens; assay: Selectivity ratio of EC50 for human FXR to EC50 for human LRH
# [22] = Clearance in iv dosed cynomolgus monkey; assay type: ADME, organism-based, Macaca fascicularis; settings: in vivo
# Mus musculus [23] = assay: Dose normalized AUC in orally dosed mouse; assay type: ADME, organism-based; settings: in vivo, po
# Mus musculus [24] = assay: Antidiabetic activity in diet-induced obese mouse assessed as glycerol level at 10 mg/kg, po for 4 weeks (reference value: 11.0 +/-1.3 mg/dL); assay type: functional
# Mus musculus [25] = assay: Antidiabetic activity in diet-induced obese mouse assessed as total cholesterol level at 10 mg/kg, po for 4 weeks (reference value: 140.0 +/-2.8 mg/dL); assay type: functional
# Mus musculus [26] = assay: Antidiabetic activity in diet-induced obese mouse assessed as change in body weight at 100 mg/kg, po for 4 weeks measured after 3 weeks (reference value: 29.1+/-0.8 g); assay type: functional
smiles,measurement,setting,value
CC(C)c1onc(-c2c(Cl)cccc2Cl)c1COc1ccc(-c2ccc3nc(C(=O)O)ccc3c2)cc1,Activity,Mus musculus [1],313 mg/dL
same,Ratio EC50,Homo sapiens [2],100
same,Vd,[3],0.31 L/kg
same,Activity,Mus musculus [4],10 mg/dL
same,Activity,Mus musculus [5],25.6 g
same,clearance,[6],4.4 mL/min/kg
same,half-life,[7],2 h
same,IC50,Cytochrome P450 1A2,21 µM
same,EC50,Bile acid receptor,0.12 µM
same,Activity,Mus musculus [8],55.8 mg/dL
same,Ratio EC50,Homo sapiens [9],100
same,Activity,Mus musculus [10],241.4 mg/dL
same,Activity,Mus musculus [11],0.58 ng/mL
same,Activity,Mus musculus [12],99.6 mg/dL
same,Ratio EC50,Homo sapiens [13],100
same,Activity,Mus musculus [14],23.2 g
same,Activity,Mus musculus [15],0.52 mEq/dL
same,Ratio EC50,Homo sapiens [16],100
same,Activity,Mus musculus [17],0.63 ng/mL
same,Activity,Mus musculus [18],1.8 mg/dL
same,Vd,[19],1.6 L/kg
same,Activity,Mus musculus [20],9.7 mg/dL
same,Ratio EC50,Homo sapiens [21],100
same,clearance,[22],3.1 mL/min/kg
same,AUC,Mus musculus [23],310 ng·kg·h/mg/mL
same,Activity,Mus musculus [24],10.8 mg/dL
same,Activity,Mus musculus [25],108.5 mg/dL
same,Activity,Mus musculus [26],24.1 g
